Bridge positions count the residues as written; N and C are the ends. Square brackets hold non-standard residues; d marks the D form. Peptide text beside a SMILES is read from it. * marks the point of attachment. hPhe(3-Cl-4-CF3) = N[C@@H](CCc1ccc(C(F)(F)F)c(Cl)c1)C(=O)O; NMePhe(4-CF3) = CN[C@@H](Cc1ccc(C(F)(F)F)cc1)C(=O)O; NMePhe(2-Cl) = CN[C@@H](Cc1ccccc1Cl)C(=O)O; NMeGly(cPent) = CN[C@H](C(=O)O)C1CCCC1; Phe(3-I) = N[C@@H](Cc1cccc(I)c1)C(=O)O; Phe(4-Me) = Cc1ccc(C[C@H](N)C(=O)O)cc1; NMeCha = CN[C@@H](CC1CCCCC1)C(=O)O; NMeChg = CN[C@H](C(=O)O)C1CCCCC1; NMeI = CC[C@H](C)[C@H](NC)C(=O)O; NMeD = CN[C@@H](CC(=O)O)C(=O)O; NMeL = CN[C@@H](CC(C)C)C(=O)O; NMeV = CN[C@H](C(=O)O)C(C)C; NMeAbu = CC[C@H](NC)C(=O)O; Ac6c = NC1(C(=O)O)CCCCC1; NMeA = CN[C@@H](C)C(=O)O; NMeAib = CNC(C)(C)C(=O)O; Nle = CCCC[C@H](N)C(=O)O; Piperidide = C1CCN(*)CC1; Pyrrolidide = C1CCN(*)C1; dNMeA = CN[C@H](C)C(=O)O; Ac5c = NC1(C(=O)O)CCCC1; Aze = O=C(O)[C@@H]1CCN1; Aib = CC(C)(N)C(=O)O; Sar = CNCC(=O)O
Test system: Human pancreatic cancer cell line AsPC-1 (G12D mutation Kras)
Experiment: AsPC-1 cell growth inhibition (AsPC-1 CGI)
Type: cell-based
Settings: read-out: AsPC-1 cell growth inhibition, 50% growth inhibitory concentration (IC50 value); 96 hours, CellTiter-Glo, values classified in ranges
Procedure: Test compounds were serially dilated with dimethyl sulfoxide, and 200 nL was then dispensed to a U-bottom 96-well plate using Labcyte Echo. […] The cell suspension was dispensed to a. plate containing a test compound at 100 μL per well and incubated at 37° C. in a 5% carbon dioxide gas incubator. 96 hours later, 80 μL of CellTiter-Glo (Promega) was added to each well and fluorescence was measured.

Question: Which IC50 does the source give for CC[C@H](C)[C@@H]1NC(=O)[C@H](CC(C)C)N(C)C(=O)C[C@@H](C(=O)N2CCCCC2)N(C)C(=O)[C@H](C2CCCCC2)N(C)C(=O)[C@@H](C)NC(=O)[C@@H]2CCCN2C(=O)[C@H](CCc2ccc(C(F)(F)F)c(Cl)c2)NC(=O)CN(C)C(=O)[C@H](CC2CCCCC2)N(C)C(=O)CN(C)C(=O)CN(C)C1=O [Compound 917] ([NMeL]I[Sar][Sar][NMeCha][Sar][hPhe(3-Cl-4-CF3)]P[dA][NMeChg][NMeD]-Piperidide; lactam N-11) here?
Answer: The IC50 was over 500 nM.

Question: CC[C@H](C)[C@@H]1NC(=O)[C@H](C)N(C)C(=O)C[C@@H](C(=O)N2CCCCC2)N(C)C(=O)[C@H](C(C)C)N(C)C(=O)C2(CCCC2)NC(=O)[C@@H]2CCCN2C(=O)[C@H](CCc2ccc(C(F)(F)F)c(Cl)c2)NC(=O)[C@@H](C)N(C)C(=O)[C@H](CC2CCCCC2)N(C)C(=O)CN(C)C(=O)CN(C)C1=O [Compound 380] ([NMeA]I[Sar][Sar][NMeCha][dNMeA][hPhe(3-Cl-4-CF3)]P[Ac5c][NMeV][NMeD]-Piperidide; lactam N-11) was tested. Which IC50 did it give?
Answer: Its IC50 is over 500 nM.

Question: Which IC50 does the source give for CC[C@H](C)[C@@H]1NC(=O)[C@H](CC(C)C)N(C)C(=O)C[C@@H](C(=O)N2CCCCC2)N(C)C(=O)[C@H]([C@@H](C)CC)N(C)C(=O)C2(CCCC2)NC(=O)[C@@H]2CCCN2C(=O)[C@H](CCc2ccc(C(F)(F)F)c(Cl)c2)NC(=O)CN(C)C(=O)[C@H](Cc2ccc(C(F)(F)F)cc2)N(C)C(=O)[C@@H]2CCN2C(=O)[C@H](C)N(C)C1=O [Compound 630] ([NMeL]I[NMeA][Aze][NMePhe(4-CF3)][Sar][hPhe(3-Cl-4-CF3)]P[Ac5c][NMeI][NMeD]-Piperidide; lactam N-11) here?
Answer: Its IC50 is at most 20 nM.

Question: How did the IC50 turn out when CC[C@H](C)[C@@H]1NC(=O)[C@H](CC(C)C)N(C)C(=O)C[C@@H](C(=O)N(C)C)N(C)C(=O)[C@H](C2CCCC2)N(C)C(=O)C2(CCCC2)NC(=O)[C@H](Cc2ccccc2Cl)N(C)C(=O)[C@H](CCc2ccc(C(F)(F)F)c(Cl)c2)NC(=O)CN(C)C(=O)[C@H](CC2CCCCC2)N(C)C(=O)[C@@H]2CCN2C(=O)[C@H](C)N(C)C1=O [Compound 1009] ([NMeL]I[NMeA][Aze][NMeCha][Sar][hPhe(3-Cl-4-CF3)][NMePhe(2-Cl)][Ac5c][NMeGly(cPent)][NMeD]-NMe2; lactam N-11) was run?
Answer: Its IC50 is over 500 nM.

Question: Which IC50 does the source give for CC[C@H](C)[C@@H]1NC(=O)[C@H](CC(C)C)N(C)C(=O)C[C@@H](C(=O)N2CCCCC2)N(C)C(=O)[C@H](C2CCCCC2)N(C)C(=O)C2(CCCC2)NC(=O)[C@@H]2CCCN2C(=O)[C@H](CCc2ccc(C(F)(F)F)c(Cl)c2)NC(=O)CN(C)C(=O)[C@H](CC)N(C)C(=O)CN(C)C(=O)CN(C)C1=O [Compound 1743] ([NMeL]I[Sar][Sar][NMeAbu][Sar][hPhe(3-Cl-4-CF3)]P[Ac5c][NMeChg][NMeD]-Piperidide; lactam N-11) here?
Answer: The IC50 was over 500 nM.

Question: With CCCC[C@@H]1NC(=O)[C@H](CC(C)C)N(C)C(=O)C[C@@H](C(=O)N2CCCCC2)N(C)C(=O)[C@H](C2CCCCC2)N(C)C(=O)C2(CCCC2)NC(=O)[C@@H]2CCCN2C(=O)[C@H](CCc2ccc(C(F)(F)F)c(Cl)c2)NC(=O)CN(C)C(=O)[C@H](CC2CCCCC2)N(C)C(=O)CN(C)C(=O)CN(C)C1=O [Compound 1723] ([NMeL][Nle][Sar][Sar][NMeCha][Sar][hPhe(3-Cl-4-CF3)]P[Ac5c][NMeChg][NMeD]-Piperidide; lactam N-11) as the molecule, how does the IC50 read?
Answer: Its IC50 is over 500 nM.

Question: How did the IC50 turn out when CC[C@H](C)[C@@H]1NC(=O)[C@H](CC(C)C)N(C)C(=O)C[C@@H](C(=O)N2CCCCC2)N(C)C(=O)[C@H](C2CCCCC2)N(C)C(=O)C2(CCCCC2)NC(=O)[C@@H]2CCCN2C(=O)[C@H](CCc2ccc(C(F)(F)F)c(Cl)c2)NC(=O)CN(C)C(=O)[C@H](CC2CCCCC2)N(C)C(=O)CN(C)C(=O)CN(C)C1=O [Compound 1644] ([NMeL]I[Sar][Sar][NMeCha][Sar][hPhe(3-Cl-4-CF3)]P[Ac6c][NMeChg][NMeD]-Piperidide; lactam N-11) was run?
Answer: The IC50 was over 500 nM.

Question: With CC[C@H](C)[C@@H]1NC(=O)[C@H](C)N(C)C(=O)C[C@@H](C(=O)N2CCCC2)N(C)C(=O)[C@H](C(C)C)N(C)C(=O)C(C)(C)NC(=O)[C@H](Cc2ccccc2Cl)N(C)C(=O)[C@H](CCc2ccc(C(F)(F)F)c(Cl)c2)NC(=O)CN(C)C(=O)[C@H](CC2CCCCC2)N(C)C(=O)CN(C)C(=O)CN(C)C1=O [Compound 426] ([NMeA]I[Sar][Sar][NMeCha][Sar][hPhe(3-Cl-4-CF3)][NMePhe(2-Cl)][Aib][NMeV][NMeD]-Pyrrolidide; lactam N-11) as the molecule, how does the IC50 read?
Answer: Its IC50 is over 500 nM.

Question: Which IC50 does the source give for CC[C@H](C)[C@@H]1NC(=O)[C@H](CC(C)C)N(C)C(=O)C[C@@H](C(=O)N2CCCCC2)N(C)C(=O)[C@H](CC(C)C)NC(=O)C(C)(C)N(C)C(=O)[C@H](Cc2ccc(C)cc2)NC(=O)[C@H](Cc2cccc(I)c2)NC(=O)CN(C)C(=O)[C@H](CC2CCCCC2)N(C)C(=O)CN(C)C(=O)CN(C)C1=O [Compound 166] ([NMeL]I[Sar][Sar][NMeCha][Sar][Phe(3-I)][Phe(4-Me)][NMeAib]L[NMeD]-Piperidide; lactam N-11) here?
Answer: The IC50 was over 500 nM.

— patent publication US20240148821A1, “PHARMACEUTICAL USE OF CYCLIC PEPTIDE COMPOUND” (CHUGAI SEIYAKU KABUSHIKI KAISHA, priority 2021, published 2024)
